Measurements taken from US10138252B1, “Lactones” (Purdue Research Foundation, priority 2017, dated 2018).
Values after ≈ are worked out from the molar mass of the structure shown.

How the values were obtained:
Clostridium difficile = test: Broth microdilution MIC against C. difficile strains; details: Clostridioides difficile, BAA1870, 48 h, read-out: minimum inhibitory concentrations (MIC)
[1] = Antifungal broth microdilution MIC assay; details: read-out: minimum inhibitory concentrations

Structure (SMILES) | MIC (Clostridium difficile) [µM] | MIC [1] [µM]
Cc1ccc(S(=O)(=O)N2CCC3=C2C2(COC2)OC3=O)cc1 [Example 19, 1-tosyl-2,3-dihydrospiro[furo[3,4-b]pyrrole-6,3′-oxetan]-4(1H)-one] | 64 to 128 (≈ 20.6 to 41.1 µg/mL) | 64 to 128 (≈ 20.6 to 41.1 µg/mL)
CCCC1OC(=O)/C1=C1\CCCN1S(=O)(=O)c1ccc(C)cc1 (stereo not drawn) [Example 22, (E)-4-propyl-3-(1-tosylpyrrolidin-2-ylidene)oxetan-2-one] | – | 64 to 128 (≈ 21.5 to 42.9 µg/mL)
Cc1ccc(S(=O)(=O)N2CCC3=C2COC3=O)cc1 [Example 11, 1-tosyl-1,2,3,6-tetrahydro-4H-furo[3,4-b]pyrrol-4-one] | – | 64 to 128 (≈ 17.9 to 35.8 µg/mL)
Cc1ccc(S(=O)(=O)N2CCC3=C2C(c2cccc(Br)c2)OC3=O)cc1 (stereo not drawn) [Example 8, 6-(3-bromophenyl)-1-tosyl-1,2,3,6-tetrahydro-4H-furo[3,4-b]pyrrol-4-one] | 64 to 128 (≈ 27.8 to 55.6 µg/mL) | 64 to 128 (≈ 27.8 to 55.6 µg/mL)
